In patent publication US4089959A, “Long-acting xanthine bronchodilators and antiallergy agents” (priority 1976, dated 1978):

Columns and labels:
[1] = tested on: guinea pig tracheal chain; assay: SP: spasmolytic activity in vitro, guinea pig tracheal chain preparation; assay type: cell-based; conditions: Cavia porcellus; given as fraction of molar, e.g. M/1000; read-out: SP in vitro, C: molar (M) concentration required to produce maximum relaxation
From the text: SP: Spasmolytic activity evaluated in vitro using guinea pig tracheal chain preparation, and expressed as the molar (M) concentration required to produce maximum relaxation. The method used in that of Castillo and de Beer, J. Pharmac. Expt. Therap. 90, 104, 1947.

[2] = tested on: antigen-induced bronchconstriction; assay: AA: antiallergy (anti-anaphylactic) activity against antigen-induced bronchoconstriction in sensitized rats; conditions: 1h
From the text: The animals are subdivided into control and test groups.
Test animals receive a drug either orally, intraperitoneally or intravenously and are challenged with intravenous antigen at fixed time intervals after dosing. Antigen-induced increases in tracheal pressure are monitored and reflect the extent of bronchoconstriction.

[3] = tested on: histamine-induced bronchoconstriction; assay: BD: bronchodilator activity against histamine-induced bronchoconstriction in the guinea pig; assay type: in vivo; conditions: for potency, in words: 4280 at 20 mpK po vs 4258 at 15 mpK po; for lethal (animals) / dose showing lethal effects: guinea pig; for dose showing lethal effects: po
Experimental: A modification of the method of Siegmund. O. H., et.al., J. Pharmacol. and Exp. Therap. 90:254-9, 1947, is used. […] Times for prostration are recorded.

LD50, mouse = conditions: in vivo, po
Experimental: (§1) The LD50 was determined in three species, the mouse (male, 18-25 g), the albino rat (female, 150-200 g) and the albino guinea pig (male 180-280 g) by oral administration and in the albino rat by intraperitoneal administration. The animals are fasted overnight prior to testing. Six groups of 10 animals are used; five groups are dosed with the test substance, the sixth group serves as a control and receives the drug vehicle at the highest test concentration. The compounds were administered in a 0.5% gum tragacanth solution in distilled water using a constant logarithmic increment in dose. Dose volume ranged from […].
The animals were housed five per cage (rat and guinea pig) or ten per cage (mouse) with free access to food and water. The number of dead animals was recorded daily for five consecutive days. The total mortality per group of 10 for each dose level was recorded and LD50 with Confidence Limits calculated according to the method described by Weil, C. S., Biometrics 8(3): 249-263, 1952.

[4] = tested on: antigen-induced wheal formation; assay: PCA: passive cutaneous anaphylaxis in the rat; assay type: in vivo; conditions: 20 mg/kg po
Experimental: PCA: Antianaphylactic activity against passive cutaneous anaphylaxis in the rat, expressed as % protection against antigen-induced wheal formation.
The method used is that of Ogilvie, B. M., Immunology 12, 113-131 (1967). Reaginic […] antibodies develope in that rat following subcutaneous injection of Nippostrongylus brasiliensis larvae. Antisera, collected 28 days later are injected subcutaneously into new rats.

in vivo = assay: in vivo
Experimental: as §1
The animals were housed five per cage (rat and guinea pig) or ten per cage (mouse) with free access to food and water. The number of dead animals was recorded daily for five consecutive days.

[5] = tested on: histamine-induced bronchoconstriction; assay: CP: cardiopulmonary activity against histamine-induced bronchoconstriction in the dog; assay type: in vivo; conditions: histamine administration; vs theophylline
From the text: Int. Pharmacodyn. Therap. […] Pretreatment with bronchodilator drugs aims to block the bronchospastic response to histamine. Each dog serves as its own control.

Compound: CC(C)Cn1c(=O)n(C)c(=O)c2[nH]cnc21 [Compound 4258]
- EC (maximum relaxation) [1]: 0.001 M
- AA, toxicity noted in place of % protection ([2]; 2.0 mpK ip): tox
- BD, % protection ([3]; 15 mpK po, 30'): 45%
- BD, % protection ([3]; 15 mpK po, 2h): 75%
- BD, % protection ([3]; 15 mpK po, 4h): 39%
- potency, in words [3]: equal potency
- lethal (animals) ([3]; 25 mpK po): 2/4
- dose showing lethal effects [3]: 25 mpK

Compound: CCC(C)Cn1c(=O)n(C)c(=O)c2[nH]cnc21 (stereo not shown) [Compound 4280]
- EC (maximum relaxation) [1]: 0.001 M
- AA, % protection ([2]; 15 mpK ip): 56%
- BD, % protection ([3]; 20 mpK po, 30'): 86%
- BD, % protection ([3]; 20 mpK po, 1h): 86%
- BD, % protection ([3]; 20 mpK po, 2h): 80%
- BD, % protection ([3]; 20 mpK po, 4h): 13%
- potency, in words [3]: equal potency
- lethal (animals) ([3]; 80 mpK po): 3/8
- dose showing lethal effects [3]: 80 mpK

Compound: Cc1nc2c([nH]1)c(=O)n(C)c(=O)n2C [Compound 4296]
- EC (maximum relaxation) [1]: 0.0714 M
- BD, % protection ([3]; 100 mpK po, 8h): 23%
- BD, % protection ([3]; 150 mpK po, 30'): 68%
- BD, % protection ([3]; 150 mpK po, 8h): 85%

Compound: CCCC(C)Cn1c(=O)n(C)c(=O)c2[nH]c(C)nc21 (stereo not shown) [Compound 4373, 1,8-dimethyl-3-(2-methyl-1-pentyl)xanthine]
- EC (maximum relaxation) [1]: 0.05 M
- AA, % protection ([2]; 20 mpK ip): 54%
- BD, % protection ([3]; 40 mpK po, 30'): 71%
- BD, % protection ([3]; 40 mpK po, 4h): 87%
- BD, % protection ([3]; 40 mpK po, 6h): 96%
- BD, % protection ([3]; 80 mpK po, 30'): 81%
- BD, % protection ([3]; 80 mpK po, 4h): 100%

Compound: CCC(C)Cn1c(=O)n(C)c(=O)c2[nH]c(C)nc21 (stereo not shown) [Compound 4383, 1,8-dimethyl-3-(2-methyl-1-butyl) xanthine]
- LD50 at 120 h (LD50, mouse): 66.6 mg/kg
- Wheal Diameter, % Δ [4]: 50%
- Wheal Intensity, % Δ [4]: 48%
- Wheal Diameter: Mean ± S.E.M., Response ([4]; control 1.50 ± 0.16): 0.74 ± 0.16 cm
- Wheal Intensity: Mean ± S.E.M., Response ([4]; control 2.17 ± 0.21): 1.13
- EC (maximum relaxation) [1]: 0.001 M
- AA, % protection ([2]; 2.5 mpK po): 58%
- AA, % protection ([2]; 4 mpK ip): 57%
- BD, % protection ([3]; 10 mpK po, 30'): 35%
- bronchodilation potency in the BD (guinea pig) assay, in words ([3]; 10 mpK po, 4383 vs 4388): about the same bronchodilation potency as 4388
- BD, % protection ([3]; 10 mpK po, 2h): 63%
- BD, % protection ([3]; 10 mpK po, 6h): 66%
- toxic effects in the BD (guinea pig) assay, in words ([3]; 20 mpK po): no toxic effects
- BD, % protection ([3]; 20 mpK po, 1h): 92%
- BD, % protection ([3]; 20 mpK po, 4h): 100%
- BD, % protection ([3]; 20 mpK po, 6h): 97%
- LD50 at 120 h (in vivo; ip, rat): 24.6 mg/kg
- LD50 at 120 h (in vivo; po, guinea pig): 21.7 mg/kg
- LD50 at 120 h (in vivo; po, rat): 88.7 mg/kg
- bronchodilation in the dog, in words [5]: significantly reduces the decrease in pulmonary compliance and increase in pulmonary resistance due to histamine administration

Compound: Cc1nc2c([nH]1)c(=O)n(C)c(=O)n2CC(C)C [Compound 4388, 1,8-dimethyl-3-isobutylxanthine]
- EC (maximum relaxation) [1]: 0.001 M
- AA, % protection ([2]; 2.5 mpK po): 50%
- AA, % protection ([2]; 75 mpK ip): 70%
- BD, % protection ([3]; 10 mpK po, 1h): 76%
- BD, % protection ([3]; 10 mpK po, 4h): 73%
- BD, % protection ([3]; 10 mpK po, 6h): 80%
- toxic effects in the BD (guinea pig) assay, in words ([3]; 20 mpK po): pronounced toxicity and was even lethal to one animal
- bronchodilator potency, in words ([3]; general statement): great potency and is long-acting
- lethal (animals) ([3]; 20 mpK po): 1/4

Compound: Cn1c(=O)c2[nH]cnc2n(C)c1=O [Theophylline, 1,3-dimethylxanthine]
- EC (maximum relaxation) [1]: 0.1 M
